Source: patent publication US7425557B2, “Inhibitors of glycogen synthase kinase 3” (Novartis Vaccines and Diagnostics, Inc., priority 1998, dated 2008)

Molecular target: human GSK3β (Homo sapiens, UniProt P49841)
Experiment: Screening for GSK3 inhibitory activity using a cell-free assay
Assay type: biochemical
Conditions: read-out: IC50 with respect to GSK3
Outline: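 Radiometric cell-free assay with recombinant human GSK3β phosphorylating a biotinylated peptide substrate for 3 h. Reactions were stopped with 50 μM ATP/20 mM EDTA and captured on streptavidin plates. Incorporated radiolabel was counted by scintillation and plotted against compound concentration.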

human GSK3β, sequence (P49841 whole entry): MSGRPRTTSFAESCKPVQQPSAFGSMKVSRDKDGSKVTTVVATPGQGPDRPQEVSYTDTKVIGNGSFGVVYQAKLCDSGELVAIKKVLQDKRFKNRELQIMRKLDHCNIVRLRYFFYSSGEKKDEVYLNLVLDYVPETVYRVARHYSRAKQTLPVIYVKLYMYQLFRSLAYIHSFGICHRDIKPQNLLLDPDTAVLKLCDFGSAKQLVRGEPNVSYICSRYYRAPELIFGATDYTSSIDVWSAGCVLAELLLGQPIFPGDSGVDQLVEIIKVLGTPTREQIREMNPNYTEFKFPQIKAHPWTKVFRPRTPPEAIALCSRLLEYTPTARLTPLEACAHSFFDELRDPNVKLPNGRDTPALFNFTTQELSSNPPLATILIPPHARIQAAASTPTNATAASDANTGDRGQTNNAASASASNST

Row | IC50 [µM] | SMILES
1 | ≤ 1 | Nc1nc(NCCNc2ncc(N3C(=O)c4ccccc4C3=O)c(-c3ccc(Cl)cc3Cl)n2)ccc1[N+](=O)[O-] [2-[2-({2-[(6-amino-5-nitro(2-pyridyl))amino]ethyl}amino)-4-(2,4-dichlorophenyl)pyrimidin-5-yl]isoindoline-1,3-dione]
2 | ≤ 10 | NC(=O)c1ccc(-c2ccnc(NCCc3ccc(F)cc3)n2)cc1 [4-(2-{[2-(4-fluorophenyl)ethyl]amino}pyrimidin-4-yl)benzamide]
3 | ≤ 10 | CN1CCN(c2ccc(NCCNc3ccc(C#N)cn3)nc2-c2ccc(Cl)cc2Cl)C(=O)C1 [6-[(2-{[6-(2,4-dichlorophenyl)-5-(4-methyl-2-oxo-1-piperazinyl)-2-pyridinyl]amino}ethyl)amino]nicotinonitrile]
4 | ≤ 1 | Cc1c[nH]c(-c2cnc(NCCNc3ccc(C#N)cn3)nc2-c2ccc(Br)cc2Cl)n1 [6-[(2-{[4-(4-bromo-2-chlorophenyl)-5-(4-methylimidazol-2-yl)pyrimidin-2-yl]amino}ethyl)amino]pyridine-3-carbonitrile]
5 | ≤ 10 | CCOC(=O)c1cnc(NCCNc2ccc([N+](=O)[O-])cn2)nc1-c1ccc(-c2ccccc2)cc1 [ethyl 2-({2-[(5-nitro(2-pyridyl))amino]ethyl}amino)-4-(4-phenylphenyl)pyrimidine-5-carboxylate]
6 | ≤ 1 | Nc1nc(NCCNc2ncc(-n3nnnc3C(F)(F)F)c(-c3ccc(Cl)cc3Cl)n2)ccc1[N+](=O)[O-] [{2-[(6-amino-5-nitro(2-pyridyl))amino]ethyl}{4-(2,4-dichlorophenyl)-5-[5-(trifluoromethyl)(1,2,3,4-tetraazolyl)]pyrimidin-2-yl}amine]
7 | ≤ 10 | COc1ccc(OC)c(CCNc2nccc(-c3ccc(C#N)cc3)n2)c1 [4-(2-{[2-(2,5-dimethoxyphenyl)ethyl]amino}pyrimidin-4-yl)benzene-carbonitrile]
8 | ≤ 1 | Cc1cc(Cl)ccc1-c1nc(NCCNc2ccc([N+](=O)[O-])c(N)n2)ncc1-c1ncc[nH]1 [{2-[(6-amino-5-nitro(2-pyridyl))amino]ethyl}[4-(4-chloro-2-methylphenyl)-5-imidazol-2-ylpyrimidin-2-yl]amine]
9 | ≤ 1 | O=C(O)c1ccc(-c2nc(NCCNc3ccc([N+](=O)[O-])cn3)nc(-c3ccc([N+](=O)[O-])cc3)c2C(=O)O)cc1 [4-(4-carboxyphenyl)-2-({2-[(5-nitro(2-pyridyl))amino]-ethyl}amino)-6-(4-nitrophenyl)pyrimidine-5-carboxylic acid]
10 | ≤ 10 | Cc1cccc(OCCCNc2nccc(-c3ccc(C(N)=O)cc3)n2)c1 [4-(2-{[3-(3-methylphenoxy)propyl]amino}pyrimidin-4-yl)benzamide]
11 | ≤ 10 | O=C(NCc1ccc(Cl)c(Cl)c1)c1ccc(-c2ccnc(NCCNc3ccc([N+](=O)[O-])cn3)n2)cc1 [N-[(3,4-dichlorophenyl)methyl]{4-[2-({2-[(5-nitro(2-pyridyl))amino]ethyl}amino)pyrimidin-4-yl]phenyl}carboxamide]
12 | ≤ 10 | Cc1nc(NCCNc2ccc([N+](=O)[O-])cn2)ncc1C(=O)O [4-methyl-2-({2-[(5-nitro(2-pyridyl))amino]ethyl}amino)pyrimidine-5-carboxylic acid]
13 | ≤ 1 | N#Cc1ccc(-c2nc(NCCNc3ccc([N+](=O)[O-])cn3)nc(-c3ccccc3)c2C(=O)O)cc1 [4-(4-cyanophenyl)-2-({2-[(5-nitro(2-pyridyl))amino]ethyl}amino)-6-phenylpyrimidine-5-carboxylic acid]
14 | ≤ 10 | CCNC(=O)c1ccc(NCCNc2ncc(C(=O)OCC)c(-c3ccc(C#N)cc3)n2)nc1 [ethyl 4-(4-cyanophenyl)-2-[(2-{[5-(N-ethylcarbamoyl)(2-pyridyl)]amino}-ethyl)amino]pyrimidine-5-carboxylate]
15 | ≤ 10 | NC(=O)c1ccc(-c2ccnc(NCc3cccc(Br)c3)n2)cc1 [4-(2-{[(3-bromophenyl)methyl]amino}pyrimidin-4-yl)benzamide]
16 | ≤ 1 | Nc1nc(NCCNc2ncc(C(=O)O)c(-c3ccc(Cl)cc3Cl)n2)ccc1[N+](=O)[O-] [2-({2-[(6-amino-5-nitro(2-pyridyl))amino]ethyl}amino)-4-(2,4-dichlorophenyl)pyrimidine-5-carboxylic acid]
17 | ≤ 1 | Cn1ccnc1-c1cnc(NCCNc2ccc([N+](=O)[O-])cn2)nc1-c1ccc(Cl)cc1Cl [[4-(2,4-dichlorophenyl)-5-(1-methylimidazol-2-yl)pyrimidin-2-yl]{2-[(5-nitro(2-pyridyl))amino]-ethyl}amine]
18 | ≤ 1 | N#Cc1ccc(-c2nc(NCCNc3ccc([N+](=O)[O-])cn3)nc(-c3ccc(F)cc3)c2C(=O)O)cc1 [4-(4-cyanophenyl)-6-(4-fluorophenyl)-2-({2-[(5-nitro(2-pyridyl))amino]ethyl}-amino)pyrimidine-5-carboxylic acid]
19 | ≤ 10 | CCOC(=O)c1cnc(NCCNc2ccc([N+](=O)[O-])cn2)nc1-c1cccc(C#N)c1 [ethyl 4-(3-cyanophenyl)-2-({2-[(5-nitro(2-pyridyl))amino]ethyl}amino)pyrimidine-5-carboxylate]
20 | ≤ 1 | NC(=O)c1ccc(-c2ccnc(NCCc3ccccn3)n2)cc1 [4-{2-[(2-(2-pyridyl)ethyl)amino]pyrimidin-4-yl}benzamide]

Row | IC50 [µM] | SMILES
21 | ≤ 10 | O=C(NCc1cccs1)c1ccc(-c2ccnc(NCCNc3ccc([N+](=O)[O-])cn3)n2)cc1 [{4-[2-({2-[(5-nitro(2-pyridyl))amino]ethyl}amino)-pyrimidin-4-yl]phenyl}-N-(2-thienylmethyl)carboxamide]
22 | ≤ 10 | CN1CCN(c2cnc(NCCNc3ccc(C#N)cn3)nc2-c2ccc(Cl)cc2Cl)C(=O)C1 [6-[(2-{[4-(2,4-dichlorophenyl)-5-(4-methyl-2-oxo-1-piperazinyl)-2-pyrimidinyl]amino}ethyl)amino]-nicotinonitrile]
23 | ≤ 10 | COc1cccc(-c2cccc(CNc3nccc(-c4ccc(C(N)=O)cc4)n3)c2)c1 [4-[2-({[3-(3-methoxyphenyl)phenyl]methyl}amino)pyrimidin-4-yl]benzamide]
24 | ≤ 1 | N#Cc1ccc(-c2nc(NCCNc3ccc([N+](=O)[O-])cn3)ncc2C(=O)N2CCOCC2)cc1 [4-[5-(morpholin-4-ylcarbonyl)-2-({2-[(5-nitro(2-pyridyl))amino]ethyl}-amino)pyrimidin-4-yl]benzenecarbonitrile]
25 | ≤ 10 | CCOC(=O)c1cnc(NCCc2ccccn2)nc1-c1ccc(OC)cc1 [ethyl 4-(4-methoxyphenyl)-2-[(2-(2-pyridyl)ethyl)amino]pyrimidine-5-carboxylate]
26 | ≤ 10 | CCOC(=O)c1cnc(NCCNc2ccc(C(=O)O)cn2)nc1-c1ccc(C#N)cc1 [6-[(2-{[4-(4-cyanophenyl)-5-(ethoxycarbonyl)pyrimidin-2-yl]amino}ethyl)amino]pyridine-3-carboxylic acid]
27 | ≤ 1 | CN1CCN(c2cnc(NCCNc3ccc([N+](=O)[O-])c(N)n3)nc2-c2ccc(Cl)cc2Cl)CC1 [{2-[(6-amino-5-nitro(2-pyridyl))amino]ethyl}[4-(2,4-dichlorophenyl)-5-(4-methylpiperazinyl)-pyrimidin-2-yl]amine]
28 | ≤ 10 | CN1CCN(c2ccc(NCCNc3ccc([N+](=O)[O-])c(N)n3)nc2-c2cccnc2)C(=O)C1 [1-{6-[2-(6-Amino-5-nitropyridin-2-ylamino)-ethylamino]-[2,3′]bipyridinyl-3-yl}-4-methyl-piperazin-2-one]
29 | ≤ 1 | O=[N+]([O-])c1ccc(NCCNc2ncc(-c3ncc[nH]3)c(-c3ccc(Cl)cc3Cl)n2)nc1 [[4-(2,4-dichlorophenyl)-5-imidazol-2-ylpyrimidin-2-yl]{2-[(5-nitro(2-pyridyl))amino]ethyl}amine]
30 | ≤ 1 | CCOC(=O)c1cnc(NCCNc2ccc([N+](=O)[O-])cn2)nc1-c1ccc(C(F)(F)F)cc1 [ethyl 2-({2-[(5-nitro(2-pyridyl))amino]ethyl}amino)-4-[4-(trifluoromethyl)phenyl]pyrimidine-5-carboxylate]
31 | ≤ 10 | NC(=O)c1ccc(-c2ccnc(NCc3ccc(-c4ccc(F)cc4)cc3)n2)cc1 [4-[2-({[4-(4-fluorophenyl)phenyl]methyl}amino)pyrimidin-4-yl]benzamide]
32 | ≤ 10 | COC(=O)c1cnc(NCCNc2ccc([N+](=O)[O-])cn2)nc1-c1cccnc1 [methyl 2-({2-[(5-nitro(2-pyridyl))amino]ethyl}amino)-4-(3-pyridyl)pyrimidine-5-carboxylate]
33 | ≤ 10 | CCOC(=O)c1cnc(NCCNc2ccc([N+](=O)[O-])cn2)nc1-c1cc(C(F)(F)F)cc(C(F)(F)F)c1 [ethyl 4-[3,5-bis(trifluoromethyl)-phenyl]-2-({2-[(5-nitro(2-pyridyl))amino]ethyl}amino)pyrimidine-5-carboxylate]
34 | ≤ 10 | Fc1ccc(-c2ccnc(NCCNc3ccccn3)n2)cc1F [[4-(3,4-difluorophenyl)pyrimidin-2-yl][2-(2-pyridylamino)-ethyl]amine]
35 | ≤ 10 | COc1ccccc1-c1nc(NCCNc2ccc([N+](=O)[O-])cn2)ncc1C(=O)O [4-(2-methoxyphenyl)-2-({2-[(5-nitro(2-pyridyl))amino]ethyl}amino)pyrimidine-5-carboxylic acid]
36 | ≤ 10 | O=[N+]([O-])c1ccc(NCCNc2nccc(-c3ccc(O)cc3)n2)nc1 [4-[2-({2-[(5-nitro-2-pyridyl)-amino]ethyl}amino)pyrimidin-4-yl]phenol]
37 | ≤ 10 | COc1cccc(CCNc2nccc(-c3ccc(C(=O)NCc4cccc(Br)c4)cc3)n2)c1 [N-[(3-bromophenyl)methyl][4-(2-{[2-(3-methoxyphenyl)ethyl]amino}pyrimidin-4-yl)phenyl]carboxamide]
38 | ≤ 10 | CC(=O)Nc1cccc(-c2cccc(CNc3nccc(-c4ccc(C(N)=O)cc4)n3)c2)c1 [4-{2-[({3-[3-(acetylamino)phenyl]phenyl}methyl)amino]pyrimidin-4-yl}benzamide]
39 | ≤ 1 | N#Cc1ccc(-c2nc(NCCNc3ccc([N+](=O)[O-])cn3)nc(-c3cccc([N+](=O)[O-])c3)c2C(=O)O)cc1 [4-(4-cyanophenyl)-2-({2-[(5-nitro(2-pyridyl))amino]ethyl}amino)-6-(3-nitrophenyl)pyrimidine-5-carboxylic acid]
